The term pEC50 denotes the EC50 on a negative log10 scale, so that one unit is a factor of ten. A word on the EC90: it is the concentration needed for an effect of 90%. The CC50 is the concentration at which the toxic effect on the cells reaches its halfway point.

The source of these data is patent US7919247B2, “Simultaneous quantification of nucleic acids in diseased cells” (Pharmasset, Inc., priority 2000, dated 2011).

For data set [1], the system named is HIV-1 xxBRU (sensitive strain). The experiment in a line: real-time RT-PCR HIV-1 viral load in culture supernatant, infected human PBMC. On the technique in general: Quantitative PCR measures a nucleic acid by following its amplification.
Data set [2] deals with HIV-1 xxBRU (sensitive strain). The experiment in a line: endogenous viral RT assay of culture supernatant, HIV-1 infected human PBMC.
In data set [3] the target is T1, mitochondrial DNA polymerase γ (Homo sapiens, UniProt P54098).
T1 sequence (P54098 1-1239): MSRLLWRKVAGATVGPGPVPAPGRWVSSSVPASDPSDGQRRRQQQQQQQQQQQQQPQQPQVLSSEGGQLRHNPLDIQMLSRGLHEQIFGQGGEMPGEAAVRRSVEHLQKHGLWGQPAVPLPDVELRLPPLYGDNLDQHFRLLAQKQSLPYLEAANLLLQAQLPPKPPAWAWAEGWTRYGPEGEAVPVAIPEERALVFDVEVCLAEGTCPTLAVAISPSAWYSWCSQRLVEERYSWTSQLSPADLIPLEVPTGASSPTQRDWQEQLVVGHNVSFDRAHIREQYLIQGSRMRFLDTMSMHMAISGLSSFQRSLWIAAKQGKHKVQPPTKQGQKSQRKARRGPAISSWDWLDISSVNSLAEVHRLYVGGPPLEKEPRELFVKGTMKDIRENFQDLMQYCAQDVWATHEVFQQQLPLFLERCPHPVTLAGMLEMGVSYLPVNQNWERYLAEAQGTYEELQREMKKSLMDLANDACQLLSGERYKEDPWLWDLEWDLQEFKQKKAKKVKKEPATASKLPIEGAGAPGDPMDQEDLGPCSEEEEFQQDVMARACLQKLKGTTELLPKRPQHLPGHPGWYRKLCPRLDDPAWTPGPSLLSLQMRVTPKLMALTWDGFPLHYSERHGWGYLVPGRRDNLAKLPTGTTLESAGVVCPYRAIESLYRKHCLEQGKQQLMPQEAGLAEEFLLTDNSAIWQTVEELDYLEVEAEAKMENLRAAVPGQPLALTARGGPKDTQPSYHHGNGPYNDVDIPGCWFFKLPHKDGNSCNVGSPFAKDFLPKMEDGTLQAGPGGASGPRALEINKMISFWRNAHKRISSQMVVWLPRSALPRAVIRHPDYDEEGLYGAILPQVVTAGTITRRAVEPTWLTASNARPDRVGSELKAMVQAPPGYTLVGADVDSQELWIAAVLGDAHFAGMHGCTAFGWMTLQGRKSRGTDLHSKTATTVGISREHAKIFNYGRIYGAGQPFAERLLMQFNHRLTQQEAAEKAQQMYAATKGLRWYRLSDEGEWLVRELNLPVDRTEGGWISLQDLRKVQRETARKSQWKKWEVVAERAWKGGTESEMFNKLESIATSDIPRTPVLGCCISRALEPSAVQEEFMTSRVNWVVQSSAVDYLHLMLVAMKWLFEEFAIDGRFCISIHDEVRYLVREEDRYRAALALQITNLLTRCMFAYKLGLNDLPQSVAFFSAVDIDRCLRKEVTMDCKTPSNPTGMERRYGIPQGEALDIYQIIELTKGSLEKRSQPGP
T1 sequence (Q9UHN1 26-485 partner limits assumed): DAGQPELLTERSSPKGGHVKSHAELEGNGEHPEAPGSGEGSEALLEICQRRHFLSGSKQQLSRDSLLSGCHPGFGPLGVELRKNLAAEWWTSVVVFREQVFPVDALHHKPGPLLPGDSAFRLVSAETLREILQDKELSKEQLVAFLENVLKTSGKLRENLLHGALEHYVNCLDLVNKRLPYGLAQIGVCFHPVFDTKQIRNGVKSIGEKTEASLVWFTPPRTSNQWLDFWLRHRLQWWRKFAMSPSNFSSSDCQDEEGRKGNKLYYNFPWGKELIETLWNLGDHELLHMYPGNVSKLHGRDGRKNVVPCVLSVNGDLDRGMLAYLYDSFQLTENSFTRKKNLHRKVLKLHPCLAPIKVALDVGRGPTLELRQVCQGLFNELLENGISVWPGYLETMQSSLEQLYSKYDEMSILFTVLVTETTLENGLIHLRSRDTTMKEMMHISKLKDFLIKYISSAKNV

Data set [4] deals with T2, mitochondrial RNA polymerase (Homo sapiens, UniProt O00411).
T2 construct: endogenous in cells; HepG2 inferred from the preceding paragraphs
In words: quantitative RT-PCR of mitochondrial COXII RNA calibrated against nuclear RNA transcripts. The conditions noted are these: normalized for no treatment. Format: cell-based. On the procedure:
Similar results were also obtained if this technology was carried out in a quantitative reverse-transcriptase-PCR protocol. This approach measures the potential inhibition of antiviral compounds for the mitochondrial RNA polymerase, in comparison with the nuclear RNA polymerases I (generating mainly rRNA transcripts), RNA polymerase II (generating mainly mRNA transcripts), or of lesser importance, RNA polymerase III (generating mainly tRNA transcripts). To obtain such results, amplification of either rRNA, or -actin mRNA as calibrator is required.

Data set [5] in a line: MTS/MTT dye toxicity assay. Format: cell-based, human. The conditions noted are these: human. On the procedure: (§1) After a three day-incubation, or 4 for CEM, or 5 days for PBMC, cell viability and mitochondrial activity were measured in a colorimetric assay using the MTS- or MTT dye (Promega, Wis.).
(§2) The cytotoxicity testing as performed here is a standard technique. Briefly, cells are seeded in 96-well plates at various concentrations (dependent on cell type, duration of assay), typically at 5×10^3 cells per well, in the presence of increasing concentrations of the test compound (0, 1, 3, 10, 33, and 100 μM). After a three day-incubation, cell viability and mitochondrial activity are measured by adding the MTS-dye (Promega), followed by a 3 hours incubation. Afterwards the plates containing the dye are read at 490 nm. Such methodologies are well described and available from the manufacturer (Promega).
For orientation: Tetrazolium dyes change colour on reduction, which living cells bring about.

Data set [6] can be described thus: MTS/MTT dye toxicity assay. In kind it is cell-based. How it is done:
as §1, §2

Data set [7] has as its target T1, mitochondrial DNA polymerase γ. In words: real-time PCR mitochondrial DNA polymerase toxicity (COXII vs β-actin DNA, comparative Ct) in HepG2 cells. The conditions noted are these: 7-day incubation with up to 10 μM.
The test system of data set [8] is PBMC. The experiment in a line: MTS/MTT dye toxicity assay. The settings on record: human PBMC, evaluated up to 100 μM. Format: cell-based, human. How it is done:
as §1, §2

Data set [9] relates to VERO. In words: MTS/MTT dye toxicity assay. The conditions noted are these: Vero cells, evaluated up to 100 μM. Format: cell-based. On the procedure:
as §1, §2

The test system of data set [10] is CEM. In words: MTS/MTT dye toxicity assay. In kind it is cell-based. The settings on record: CEM cells, evaluated up to 100 μM. On the procedure:
as §1, §2

Where [11] appears, read: xxBRU, real-time RT-PCR, human PBMC, 5 days.
The mark [12] stands for this setting: xxBRU, RT assay, human PBMC, 5 days.
The mark [13] stands for this setting: Human immunodeficiency virus 1, PBMC, 120 h.

pEC50: −log10 of the molar value. Read-outs that look alike come from different tables or passages of the source.

T2 sequence (O00411 42-1230): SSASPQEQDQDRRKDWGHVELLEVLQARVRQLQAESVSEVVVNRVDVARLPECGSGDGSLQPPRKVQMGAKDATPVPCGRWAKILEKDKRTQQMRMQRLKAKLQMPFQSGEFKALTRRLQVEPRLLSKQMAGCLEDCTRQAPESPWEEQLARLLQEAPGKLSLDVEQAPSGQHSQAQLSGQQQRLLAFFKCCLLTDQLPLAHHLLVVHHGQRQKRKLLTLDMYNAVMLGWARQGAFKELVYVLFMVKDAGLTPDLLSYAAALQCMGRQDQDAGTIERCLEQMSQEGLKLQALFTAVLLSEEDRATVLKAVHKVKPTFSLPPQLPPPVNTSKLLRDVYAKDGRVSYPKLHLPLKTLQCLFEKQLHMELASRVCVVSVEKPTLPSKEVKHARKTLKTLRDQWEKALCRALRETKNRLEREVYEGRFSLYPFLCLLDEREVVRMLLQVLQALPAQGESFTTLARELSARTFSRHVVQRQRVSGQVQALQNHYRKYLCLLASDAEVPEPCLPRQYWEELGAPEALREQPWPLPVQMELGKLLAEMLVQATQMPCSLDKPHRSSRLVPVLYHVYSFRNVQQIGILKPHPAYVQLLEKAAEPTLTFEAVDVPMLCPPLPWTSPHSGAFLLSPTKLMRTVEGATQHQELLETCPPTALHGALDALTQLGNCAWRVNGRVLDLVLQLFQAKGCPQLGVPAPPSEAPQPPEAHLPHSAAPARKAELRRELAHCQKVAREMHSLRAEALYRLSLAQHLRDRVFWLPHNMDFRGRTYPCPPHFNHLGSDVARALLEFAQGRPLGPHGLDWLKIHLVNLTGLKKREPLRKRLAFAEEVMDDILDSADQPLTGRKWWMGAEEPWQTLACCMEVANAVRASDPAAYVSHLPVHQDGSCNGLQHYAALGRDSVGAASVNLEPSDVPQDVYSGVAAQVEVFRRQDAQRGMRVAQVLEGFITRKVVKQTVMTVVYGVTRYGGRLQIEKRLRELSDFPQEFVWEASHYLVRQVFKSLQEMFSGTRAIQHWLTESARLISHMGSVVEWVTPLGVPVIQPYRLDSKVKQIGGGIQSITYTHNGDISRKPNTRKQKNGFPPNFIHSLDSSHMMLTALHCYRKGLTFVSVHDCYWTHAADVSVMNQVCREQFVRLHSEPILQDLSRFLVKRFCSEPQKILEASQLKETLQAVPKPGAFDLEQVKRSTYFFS

For `Nc1ccn([C@@H]2CS[C@H](CO)O2)c(=O)n1` [3TC], in [1] (setting [11]), the pEC50 is 7.52 and the 90% effect level (EC90) was put at 120 nM. In [2] (setting [12]), this compound gave a pEC50 of 7.74 and an EC90 of 77 nM.
For `Cc1cn([C@H]2C[C@H](N=[N+]=[N-])[C@@H](CO)O2)c(=O)[nH]c1=O` [AZT] the same measures were 8.41, 36 nM, 8.47 and 34 nM.
Take `Nc1ccn([C@H]2CC[C@@H](CO)O2)c(=O)n1` [D-DDC]: in [3], the “mitochondrial DNA reduction as compared to the no-drug control” value was “dose-dependent reduction in mitochondrial DNA synthesis”. In addition, in data set [4], the “mitochondrial (COXII) RNA levels” value is listed as “significant reduction in mitochondrial RNA levels”.
In data set [1] (setting [11]), `Cc1cn([C@H]2C=C[C@@H](CO)O2)c(=O)[nH]c1=O` [d4T] had a pEC50 of 8.57 and an EC90 of 120 nM. In [2] (setting [12]), this compound showed a pEC50 of 8.47 and an EC90 of 130 nM.
On to `Nc1ccn([C@@H]2S[C@H](CO)C=C2F)c(=O)n1` [β-D-d4-2′F-(4-S-pentenyl)-C], for which, in [1] (setting [13]), the pEC50 was 5.57 and it took 18100 nM to reach the 90% level (EC90). The same compound displayed a CC50 at 5 days in data set [5] above 100000 nM. In addition, the CC50 at 3 days in data set [6] (African green monkey) is above 100000 nM. In [6] (human), this compound gave a CC50 at 3 days above 100000 nM and a CC50 at 4 days above 100000 nM. In [2] (setting [13]), this compound gave a pEC50 of 5.22 and an EC90 of 23200 nM.
For the compound `Nc1ccn([C@H]2S[C@@H](CO)C=C2F)c(=O)n1` [β-L-d4-2′F-(4-S-pentenyl)-C], the “mitochondrial toxicity (γ-DNA polymerase inhibition)” value in data set [7] is “no toxicity”. For the same compound, the pEC50 was 6.40 in data set [1] (setting [13]) and 5.79 in [2] (setting [13]). The values for the EC90 in [1] (setting [13]) and in data set [2] (setting [13]) were 2680 nM and 11600 nM, respectively. Further, in [5] (PBMC, read-out: CC50), the CC50 at 5 days is above 100000 nM. The “cytotoxicity in MTS-dye assay” value in data set [8], in data set [9] and in [10] was “no cytotoxicity was observed” in each case. Besides, the CC50 at 3 days in data set [6] (African green monkey, VERO, read-out: CC50) was above 100000 nM; in data set [6] (human, HepG2, read-out: CC50), above 100000 nM. Besides, the CC50 at 4 days in data set [6] (human, CEM, read-out: CC50) is above 100000 nM.
For (−)-FTC [(-) FTC], in data set [1] (setting [11]), the pEC50 is 8.23 and the 90% effect level (EC90) was put at 88 nM. In data set [3], the “mitochondrial DNA reduction as compared to the no-drug control” value is reported as “does not induce any significant mitochondrial DNA reduction”. The “mitochondrial (COXII) RNA levels” value in [4] is given as “did not affect the COXII RNA levels”. In data set [2] (setting [12]), the pEC50 was 7.96 and the EC90 stood at 50 nM.
